The assay deals with T1, soluble epoxide hydrolase (sEH) (Homo sapiens, UniProt P34913).
T1 construct: gene EPHX2
T1 sequence (P34913 1-555): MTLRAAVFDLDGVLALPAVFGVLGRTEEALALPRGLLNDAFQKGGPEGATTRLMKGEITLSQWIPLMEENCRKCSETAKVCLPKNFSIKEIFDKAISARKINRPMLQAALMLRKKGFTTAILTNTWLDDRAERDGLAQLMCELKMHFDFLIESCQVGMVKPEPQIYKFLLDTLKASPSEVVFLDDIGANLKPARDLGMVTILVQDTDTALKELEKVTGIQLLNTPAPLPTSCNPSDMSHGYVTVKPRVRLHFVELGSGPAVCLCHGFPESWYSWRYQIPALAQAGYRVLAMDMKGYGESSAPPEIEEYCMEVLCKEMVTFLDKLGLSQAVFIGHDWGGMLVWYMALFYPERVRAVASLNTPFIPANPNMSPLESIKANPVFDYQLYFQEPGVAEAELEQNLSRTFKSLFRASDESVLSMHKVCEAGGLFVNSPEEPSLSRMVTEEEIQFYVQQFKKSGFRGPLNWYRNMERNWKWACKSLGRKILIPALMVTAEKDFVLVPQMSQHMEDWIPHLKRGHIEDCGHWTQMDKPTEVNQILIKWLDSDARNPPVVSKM
Description: fluorescent PHOME hydrolysis assay with recombinant sEH; Lineweaver–Burk and Dixon plots. Type of assay: biochemical.

Molecules are shown by their SMILES.

On to `CC1(C)Oc2ccc3ccc(=O)oc3c2[C@H](O)[C@@H]1O` [compound 1, (−)cis-Khellactone], for which the Ki was determined as 3.5 µM.

The values are drawn from publication PMC10610198, “Inhibitory Activity of Natural cis-Khellactone on Soluble Epoxide Hydrolase and Proinflammatory Cytokine Production in Lipopolysaccharides-Stimulated RAW264.7 Cells” (Plants, 2023).
